Patent publication US12150971B2, “Method and composition for preventing and treating Covid-19 and long Covid” (priority 2021, dated 2024)

System: xCT
Assay: Western blot of xCT in THP-1-derived macrophages
Format: cell-based, human
Conditions: 5 mM NAC 1 h pretreatment, then 100 μg/ml Virofree 6 or 24 h
Experimental: The cells were exposed to different treatments for the indicated time, the cells were lysed on ice with lysis buffer. The cell lysate was cleared by centrifugation at 12,000 g for 10 min. The lysate was resolved by sodium dodecyl sulfate-polyacrylamide gel electrophoresis, and the proteins were transferred to a polyvinylidene fluoride membrane. After blocking with 5% non-fat dry milk in Tris-buffered saline, the membrane was incubated overnight with the desired primary antibody (FPN (Novus Biologicals, NBP1-21502, 1:1000), FTH-1 (Cell signaling, 4393S, 1:1000), GPX4 (Abcam, ab125066, 1:1000), TFRC (Cell signaling, 13208s, 1:1000), xCT (Cell signaling, 17681s, 1:1000), GAPDH (GeneTex, GTX100118, 1:10,000), α-SMA (Abcam, ab5694, 1:1000), Fibronectin (Santa Cruz, sc-9068, 1:1000), N-cadherin (BD, 610920, 1:1000), β-actin (GeneTex, GTX109639, 1:10000)). Subsequently, the membrane was incubated with an appropriate secondary antibody. Immunoreactive bands were visualized using the enhanced chemiluminescence (ECL) method and captured by a Luminescence Imaging system (LAS 4000™, Fuji Photo Film Co. Ltd).

## CC(=O)N[C@@H](CS)C(=O)O [N-acetyl cysteine]
  xCT expression mediated by Virofree after NAC pretreatment: significantly decrease
